Numbered stars: 1 amine (or outer) side, 2 acyl side, 3 side chain; on linkers, the order of the positions; unused ones are H or OH. Square brackets hold non-standard residues; d marks the D form. Side chains are listed from the residue outwards. Peptide text beside a SMILES is read from it. * marks the point of attachment. C20 diacid = O=C(O)CCCCCCCCCCCCCCCCCCC(=O)*; C18 diacid = O=C(O)CCCCCCCCCCCCCCCCC(=O)*; αMePhe(2-F) = C[C@](N)(Cc1ccccc1F)C(=O)O; γGlu = O=C(O)[C@H](CCC(=O)[*:2])N[*:1]; αMeF = C[C@](N)(Cc1ccccc1)C(=O)O; αMeL = CC(C)C[C@](C)(N)C(=O)O; Dap = NC[C@H](N)C(=O)O; AEEA = NCCOCCOCC(=O)O; Aib = CC(C)(N)C(=O)O Where only a bound is given, the exact number is not on record here.

Usually Ki stands for the equilibrium dissociation constant of an inhibitor or competing ligand from its target. What is called EC50 is the concentration at which the effect is half-maximal.

The target of one assay is T1, human Gcg receptor (Homo sapiens, UniProt P47871).
T1 construct: expressed in transfected cells; crude membranes
The assay can be described thus: [125I]-Glucagon binding (SPA), human Gcg receptor. The note with it: read-out: hGLcgR Ki, nM (SEM, n). Put shortly: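 Crude membranes from cells expressing the receptor, prepared by hypotonic lysis in 50 mM Tris HCl pH 7.5 with protease inhibitors, homogenization and differential centrifugation, were used in a WGA-bead SPA. Binding buffer: 25 mM HEPES pH 7.4, 2.5 mM CaCl2, 1 mM MgCl2, bacitracin, Tween-20.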

The next assay has as its target T2, human GIP receptor (Homo sapiens, UniProt P48546).
T2 construct: expressed in transfected cells; crude membranes
T2 sequence (P48546 22-466): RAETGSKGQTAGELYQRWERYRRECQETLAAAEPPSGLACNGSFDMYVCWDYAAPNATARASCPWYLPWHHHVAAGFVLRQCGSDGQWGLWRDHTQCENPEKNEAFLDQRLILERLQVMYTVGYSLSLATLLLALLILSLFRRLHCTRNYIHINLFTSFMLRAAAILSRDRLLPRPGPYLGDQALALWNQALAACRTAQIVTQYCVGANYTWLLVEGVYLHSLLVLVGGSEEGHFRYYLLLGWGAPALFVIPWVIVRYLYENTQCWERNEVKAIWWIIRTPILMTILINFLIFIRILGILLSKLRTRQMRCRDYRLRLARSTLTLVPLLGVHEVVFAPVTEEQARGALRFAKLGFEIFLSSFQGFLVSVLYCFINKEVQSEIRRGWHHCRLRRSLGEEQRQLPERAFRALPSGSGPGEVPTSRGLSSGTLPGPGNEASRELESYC
The assay can be described thus: [125I]-GIP binding (SPA), human GIP receptor. The note with it: read-out: hGIPR Ki, nM (SEM, n).

Assay [1] deals with human GLP-1 receptor (GLP-1R) (Homo sapiens, UniProt P43220). As to the kind of experiment: cAMP pharmacological functional assay in presence of casein, hGLP-1R. It is filed as cell-based. The settings on record: HEK293 cells expressing hGLP-1R, 0.1% Casein, geometric mean; read-out: hGLP1R cAMP Rel EC50 nM (SEM, n).
Assay [2] deals with T3, gastric inhibitory peptide receptor (GIPR) (Homo sapiens, UniProt P48546).
T3 sequence (P48546 22-466): T2 sequence (P48546 22-466)
As to the kind of experiment: cAMP pharmacological functional assay in presence of casein, hGIPR. It is filed as cell-based. The settings on record: HEK293 cells expressing hGIPR, 0.1% Casein, geometric mean; read-out: hGIPR cAMP Rel EC50 nM (SEM, n).

In the next assay the target is human GLP-1R (Homo sapiens, UniProt P43220). The assay can be described thus: [125I]-GLP-1 binding (SPA), human GLP-1 receptor. Details: expressed in transfected cells; crude membranes. The settings on record: read-out: hGLP1R Ki, (nM) (SEM, n). Put shortly: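 Assay buffer: HEPES 25 mM, pH 7.4, CaCl2 2.5 mM, MgCl2 1 mM, with EDTA-free protease inhibitors. Receptor came from crude cell membranes prepared by homogenization and centrifugation at 4° C. IC50s came from four-parameter fits (maximum, minimum, IC50, Hill slope) and were expressed as Ki geometric means with SEM.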
human GLP-1R, sequence (P43220 24-463): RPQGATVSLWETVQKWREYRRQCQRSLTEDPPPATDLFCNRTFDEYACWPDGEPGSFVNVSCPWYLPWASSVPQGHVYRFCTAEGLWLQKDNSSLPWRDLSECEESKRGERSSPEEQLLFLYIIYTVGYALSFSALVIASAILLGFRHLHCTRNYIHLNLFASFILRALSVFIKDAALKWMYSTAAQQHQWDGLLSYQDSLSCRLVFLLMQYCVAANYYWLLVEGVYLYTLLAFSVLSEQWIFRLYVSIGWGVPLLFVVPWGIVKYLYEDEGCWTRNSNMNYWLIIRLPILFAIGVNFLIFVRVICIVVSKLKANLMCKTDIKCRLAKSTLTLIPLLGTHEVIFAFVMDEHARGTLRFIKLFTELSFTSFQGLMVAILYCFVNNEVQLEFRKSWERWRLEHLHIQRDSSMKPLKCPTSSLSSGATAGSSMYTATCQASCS

human GLP-1 receptor (GLP-1R), sequence (P43220 24-463): as above
T1 sequence (P47871 26-477): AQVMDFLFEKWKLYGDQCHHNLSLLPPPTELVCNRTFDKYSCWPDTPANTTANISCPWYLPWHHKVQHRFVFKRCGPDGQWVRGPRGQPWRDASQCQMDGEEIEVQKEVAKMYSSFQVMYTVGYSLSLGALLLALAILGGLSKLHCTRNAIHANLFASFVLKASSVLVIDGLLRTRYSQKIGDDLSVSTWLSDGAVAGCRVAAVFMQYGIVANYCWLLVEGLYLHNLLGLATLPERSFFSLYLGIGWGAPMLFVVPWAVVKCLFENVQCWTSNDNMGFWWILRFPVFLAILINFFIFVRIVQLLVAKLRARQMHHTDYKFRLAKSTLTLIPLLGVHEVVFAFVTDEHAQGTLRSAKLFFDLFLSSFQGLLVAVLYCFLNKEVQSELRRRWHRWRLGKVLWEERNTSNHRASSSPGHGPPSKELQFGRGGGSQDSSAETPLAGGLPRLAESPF

As to `CC[C@H](C)[C@H](NC(=O)[C@H](CC(C)C)NC(=O)[C@H](Cc1ccc(O)cc1)NC(=O)[C@@H](CCC(=O)O)NC(=O)[C@@H](NC(=O)[C@H](Cc1ccccc1)NC(=O)[C@H](CCC(=O)O)NC(=O)C(C)(C)NC(=O)[C@H](CCC(N)=O)NC(=O)[C@H](C)NC(=O)[C@H](CCCCNC(=O)COCCOCCNC(=O)COCCOCCNC(=O)CC[C@H](NC(=O)CCCCCCCCCCCCCCCCCCC(=O)O)C(=O)O)NC(=O)[C@H](CN)NC(=O)[C@H](CC(=O)O)NC(=O)[C@H](CC(C)C)NC(=O)[C@](C)(CC(C)C)NC(=O)[C@@H](NC(=O)[C@H](CO)NC(=O)[C@H](Cc1ccc(O)cc1)NC(=O)[C@H](CC(=O)O)NC(=O)[C@H](CO)NC(=O)[C@@H](NC(=O)[C@](C)(Cc1ccccc1F)NC(=O)[C@@H](NC(=O)CNC(=O)[C@H](CCC(=O)O)NC(=O)C(C)(C)NC(=O)[C@@H](N)Cc1ccc(O)cc1)[C@@H](C)O)[C@@H](C)O)[C@@H](C)CC)[C@@H](C)CC)C(=O)N[C@@H](CCC(=O)O)C(=O)NCC(=O)NCC(=O)N1CCC[C@H]1C(=O)N[C@@H](CO)C(=O)N[C@@H](CO)C(=O)NCC(=O)N[C@@H](C)C(=O)N1CCC[C@H]1C(=O)N1CCC[C@H]1C(=O)N1CCC[C@H]1C(=O)N[C@@H](CO)C(N)=O` [Example 218] (H-Y[Aib]EGT[αMePhe(2-F)]TSDYSI[αMeL]LD[Dap]K([AEEA-AEEA-γGlu-C20 diacid])AQ[Aib]EFI[dE]YLIEGGPSSGAPPPS-NH2), the Ki was found to be 270 nM at human Gcg receptor, 0.0593 nM at human GIP receptor and 2.54 nM on human GLP-1R. In addition, the concentration for a half-maximal effect (EC50) in assay [1] came out at 0.0423 nM; in assay [2], 0.0413 nM.

As for `CC[C@H](C)[C@H](NC(=O)[C@H](CC(C)C)NC(=O)[C@H](Cc1ccc(O)cc1)NC(=O)[C@H](CCC(=O)O)NC(=O)[C@@H](NC(=O)[C@H](Cc1ccccc1)NC(=O)[C@H](C)NC(=O)C(C)(C)NC(=O)[C@H](CCC(N)=O)NC(=O)[C@H](C)NC(=O)[C@H](CCCCNC(=O)COCCOCCNC(=O)COCCOCCNC(=O)CC[C@H](NC(=O)CCCCCCCCCCCCCCCCC(=O)O)C(=O)O)NC(=O)[C@H](CCC(=O)O)NC(=O)[C@H](CC(=O)O)NC(=O)[C@H](CC(C)C)NC(=O)[C@H](CC(C)C)NC(=O)[C@@H](NC(=O)[C@H](CO)NC(=O)[C@H](Cc1ccc(O)cc1)NC(=O)[C@H](CC(=O)O)NC(=O)[C@H](CO)NC(=O)[C@@H](NC(=O)[C@H](Cc1ccccc1)NC(=O)[C@@H](NC(=O)CNC(=O)[C@H](CCC(=O)O)NC(=O)C(C)(C)NC(=O)[C@@H](N)Cc1ccc(O)cc1)[C@@H](C)O)[C@@H](C)O)[C@@H](C)CC)[C@@H](C)CC)C(=O)N[C@@H](CCC(=O)O)C(=O)NCC(=O)NCC(=O)N1CCC[C@H]1C(=O)N[C@@H](CO)C(=O)N[C@@H](CO)C(=O)NCC(N)=O` [Example 268] (H-Y[Aib]EGTFTSDYSILLDEK([AEEA-AEEA-γGlu-C18 diacid])AQ[Aib]AFIEYLIEGGPSSG-NH2), the figures for the Ki at human Gcg receptor, on human GIP receptor and at human GLP-1R were more than 1190 nM, 0.0814 nM and 3.98 nM, respectively. Further, the figures for the EC50 in assay [1] and in assay [2] were 0.0572 nM and 0.239 nM, respectively.

For `CC[C@H](C)[C@H](NC(=O)[C@H](CC(C)C)NC(=O)[C@H](Cc1ccc(O)cc1)NC(=O)[C@H](CCC(=O)O)NC(=O)[C@@H](NC(=O)[C@](C)(Cc1ccccc1)NC(=O)[C@H](C)NC(=O)C(C)(C)NC(=O)[C@H](CCC(N)=O)NC(=O)[C@H](C)NC(=O)[C@H](CCCCNC(=O)COCCOCCNC(=O)COCCOCCNC(=O)CC[C@H](NC(=O)CCCCCCCCCCCCCCCCCCC(=O)O)C(=O)O)NC(=O)[C@H](CCCCN)NC(=O)[C@H](CC(=O)O)NC(=O)[C@H](CC(C)C)NC(=O)[C@](C)(CC(C)C)NC(=O)[C@@H](NC(=O)[C@H](CO)NC(=O)[C@H](Cc1ccc(O)cc1)NC(=O)[C@H](CC(=O)O)NC(=O)[C@H](CO)NC(=O)[C@@H](NC(=O)[C@H](Cc1ccccc1)NC(=O)[C@@H](NC(=O)CNC(=O)[C@H](CCC(=O)O)NC(=O)C(C)(C)NC(=O)[C@@H](N)Cc1ccc(O)cc1)[C@@H](C)O)[C@@H](C)O)[C@@H](C)CC)[C@@H](C)CC)C(=O)N[C@@H](CCC(=O)O)C(=O)NCC(=O)NCC(=O)N1CCC[C@H]1C(=O)N[C@@H](CO)C(=O)N[C@@H](CO)C(=O)NCC(=O)N[C@@H](C)C(=O)N1CCC[C@H]1C(=O)N1CCC[C@H]1C(=O)N1CCC[C@H]1C(=O)N[C@@H](CO)C(N)=O` [Example 74], the Ki on human Gcg receptor turned out to be 69.8 nM; at human GIP receptor, 0.0279 nM; on human GLP-1R, 5.99 nM. Besides, the EC50 in assay [1] was found to be 0.467 nM; in assay [2], 0.0866 nM.

As to `CC[C@H](C)[C@H](NC(=O)[C@H](CC(C)C)NC(=O)[C@H](Cc1ccc(O)cc1)NC(=O)[C@H](CCC(=O)O)NC(=O)[C@@H](NC(=O)[C@H](Cc1ccccc1)NC(=O)[C@H](C)NC(=O)C(C)(C)NC(=O)[C@H](CCC(N)=O)NC(=O)[C@H](C)NC(=O)[C@H](CCCCNC(=O)COCCOCCNC(=O)COCCOCCNC(=O)CC[C@H](NC(=O)CCCCCCCCCCCCCCCCCCC(=O)O)C(=O)O)NC(=O)[C@H](CCCCN)NC(=O)[C@H](CC(=O)O)NC(=O)[C@H](CC(C)C)NC(=O)[C@H](CC(C)C)NC(=O)[C@@H](NC(=O)[C@H](CO)NC(=O)[C@H](CCC(=O)O)NC(=O)[C@H](CC(=O)O)NC(=O)[C@H](CO)NC(=O)[C@@H](NC(=O)[C@](C)(Cc1ccccc1)NC(=O)[C@@H](NC(=O)CNC(=O)[C@H](CCC(=O)O)NC(=O)C(C)(C)NC(=O)[C@@H](N)Cc1ccc(O)cc1)[C@@H](C)O)[C@@H](C)O)[C@@H](C)CC)[C@@H](C)CC)C(=O)N[C@@H](CCC(=O)O)C(=O)NCC(=O)NCC(=O)N1CCC[C@H]1C(=O)N[C@@H](CO)C(=O)N[C@@H](CO)C(=O)NCC(=O)N[C@@H](C)C(=O)N1CCC[C@H]1C(=O)N1CCC[C@H]1C(=O)N1CCC[C@H]1C(=O)N[C@@H](CO)C(N)=O` [Example 130] (H-Y[Aib]EGT[αMeF]TSDESILLDKK([AEEA-AEEA-γGlu-C20 diacid])AQ[Aib]AFIEYLIEGGPSSGAPPPS-NH2; N-terminus assumed), the results for the Ki at human Gcg receptor, at human GIP receptor and at human GLP-1R were more than 1060 nM, 0.177 nM and 3.66 nM, respectively. Further, the EC50 is 0.368 nM in assay [1] and 1.55 nM in assay [2].

As to `CC[C@H](C)[C@H](NC(=O)[C@H](CO)NC(=O)[C@H](CC(=O)O)NC(=O)[C@H](CC(C)C)NC(=O)[C@H](CC(C)C)NC(=O)[C@@H](NC(=O)[C@H](CO)NC(=O)[C@H](Cc1ccc(O)cc1)NC(=O)[C@H](CC(=O)O)NC(=O)[C@H](CO)NC(=O)[C@@H](NC(=O)[C@H](Cc1ccccc1)NC(=O)[C@@H](NC(=O)CNC(=O)[C@H](CCC(=O)O)NC(=O)C(C)(C)NC(=O)[C@@H](N)Cc1ccc(O)cc1)[C@@H](C)O)[C@@H](C)O)[C@@H](C)CC)C(=O)N[C@@H](C)C(=O)N[C@@H](CCC(N)=O)C(=O)NC(C)(C)C(=O)N[C@@H](C)C(=O)N[C@@H](Cc1ccccc1)C(=O)N[C@H](C(=O)N[C@@H](CCCCNC(=O)COCCOCCNC(=O)COCCOCCNC(=O)CC[C@H](NC(=O)CCCCCCCCCCCCCCCCCCC(=O)O)C(=O)O)C(=O)N[C@@H](Cc1ccc(O)cc1)C(=O)N[C@@H](CC(C)C)C(=O)N[C@@H](CC(C)C)C(=O)N[C@@H](C)C(=O)NC(C)(C)C(=O)NCC(=O)N1CCC[C@H]1C(=O)N[C@@H](CO)C(=O)N[C@@H](CO)C(=O)NCC(=O)N[C@@H](C)C(=O)N1CCC[C@H]1C(=O)N1CCC[C@H]1C(=O)N1CCC[C@H]1C(=O)N[C@@H](CO)C(N)=O)[C@@H](C)CC` [Example 10] (H-Y[Aib]EGTFTSDYSILLDSIAQ[Aib]AFIK([AEEA-AEEA-γGlu-C20 diacid])YLLA[Aib]GPSSGAPPPS-NH2), the results for the inhibitory constant (Ki) on human Gcg receptor, at human GIP receptor and at human GLP-1R were 226 nM, 0.109 nM and 9.33 nM, respectively. Besides, the EC50 worked out at 7.64 nM in assay [1] and 1.28 nM in assay [2].
